Assay results from patent US20240197876A1, “METHODS TO DETERMINE TREATMENT EFFICACY WITH GAMMA-DELTA T CELLS” (THE TRUSTEES OF THE UNIVERSITY OF PENNSYLVANIA, priority 2021, published 2024).
Entries after “also recorded” stand apart in the source; their conditions may differ.

How the values were obtained:
Vδ2 T cells = experiment: Vδ2 T cell expansion from cultured PBMCs (γδTCR activator with or without TLR agonist), FACS; format: cell-based, human; conditions: for co-stimulatory effect on IPP induced Vδ2 T cell expansion: IPP 5 μg/ml plus TLR agonist, day 5 or 7
Procedure: Primary cells and cell lines: PBMCs and monocytes were obtained from Human Immunology Core at the University of Pennsylvania, which were obtained from healthy donors-Using informed consent and approved by Institutional Review Board. For γδ T cell expansion, PBMCs were cultured with RPMI1640 media supplemented with 10% FBS (HyClone, GE Healthcare, UT, USA), 100 U/ml Penicillin-Streptomycin, 2 mM L-Glutamine, 1/1000 2-Mercaptoethanol (2-Me) (Gibco, ThermoFisher Scientific, MA, USA) (or without 2-Me as indicated) and 200 units/ml of Recombinant Human IL-2 (PeproTech, NJ, USA) in 24-well microplates, new media added and supplemented every other day. TCR-γδ T cells were expanded in 24-well tissue culture treated microplates that were coated with mouse-monoclonal Anti-Pan-TCR γδ antibody (1.0 ug/ml in PBS; IMMU510, IM1349, Beckman). For naive γδT cell isolation, PBMCs were purified using a commercial Human TCR γ/δ T Cell Isolation Kit (Miltenyi Biotec, Germany). […] Human melanoma cell lines A375, A2058, WM9, 903 were obtained from Meenhard Herlyn's laboratory (The Wistar Institute, Philadelphia, PA, USA) and they were routinely tested for mycoplasma and DNA fingerprinted (Liu, et al., 2018, Nat Commun 9: 5426). Lung cancer cell line H1975, Colon cancer cell line HT-29, Gastric cancer cell line NCI-N87 were purchased from ATCC. Daudi cells were obtained from Andrei Thomas-Tikhonenko Lab at the University of Pennsylvania and Children's Hospital of Philadelphia, K562 cells were obtained from Michael Milone Lab at the University of Pennsylvania. BRAFi and MEKi combination therapy resistant (CR) cell lines WM9-CR and A2058-CR were generated as described before (Lu, et al., 2017, Nature 550: 133-136).
Flow cytometry: PBMCs and γδ T cell phenotypes were analyzed by flow cytometry. Briefly, single-cell suspensions were surface-stained for 30 min at 4° C. in dark, and […] staining was performed for 60 min after fixation and permeabilization using a True-Nuclear™ Transcription Factor Buffer Set (BioLegend, CA, USA). CFSE Cell Proliferation Kit for flow cytometry was purchased from Invitrogen (ThermoFisher Scientific, MA, USA). Fluorescein-conjugated antibodies were used. Data were acquired on LSRA/B or Fortessa B flow cytometers (BD Biosciences, NJ, USA) at Flow Cytometry and Cell Sorting Resource Laboratory at the University of Pennsylvania and analyzed with FlowJo software (Tree Star, Ashland, OR).

γδ T cells = experiment: Expansion of γδ T cells ex vivo from PBMC with ZOL or anti-γδTCR Ab plus IL-2; format: cell-based, human
Procedure: Expansion of γδ T cells ex vivo. PBMC were plated at 2×10^6 cells per well in 24-well flat-bottomed plates at 37° C. in a humidified atmosphere of 5% CO2. The standard culture medium contains RPMI 1640 (Gibco), containing 10% FBS (Gibco), 2 mM L-glutamine (Gibco), 100 U/ml penicillin (Gibco), streptomycin (Gibco) and 200 IU/ml IL-2 (PeproTech, Rocky Hill, NJ) (Castella et al., Nature communications. 2017; 8:15663.) 5 μM zoledronic acid (Sigma-Aldrich, St. Louis, MO USA) was added into the culture medium at the first day and the medium containing IL-2 changed every two days. In some cases, 24-well plates were pre-coated with 0.5 μg/ml anti-γδTCR Ab (Immunotech, Beckman Coulter, Fullerton, CA) and then PBMCs were added to the anti-γδTCR Ab-coated wells and cultured in the standard culture medium mentioned above. The viability and cell number of γδ T cells were evaluated by the trypan blue staining assay, and the percentage of γδ T cells counted by flow cytometry (Ryan et al., Proc NatlAcadSci USA. 2016; 113(50):14378-83).
Antibodies and flow cytometry analyses. […] Samples were acquired using a LSR-A flow cytometer (BD Biosciences, Baltimore, MD) and analyzed using FlowJo software (Tree Star Inc., Ashland, OR).

[1] = test system: UACC903 and A2058 melanoma cells; experiment: Cytotoxicity and 3-D tumor spheroid assays with γδ T cells expanded by ZOL or anti-γδTCR antibody; format: cell-based, human
Procedure: Cytotoxicity assays. The CytoTox 96® Non-Radioactive Cytotoxicity Assay (Promega, Madison, WI) was applied to measure the cytotoxicity of expanded Vγ9Vδ2 T cells. In this respect, A375 (2×10^4 cells/well), A2058 (2×10^4 cells/well), and 903 (2×10^4 cells/well) melanoma cells were used as target cells and seeded into a 96-round well plate, and expanded Vγ9Vδ2 T cells (1×10^5 cells/well) served as effector cells were directly added to individual wells incubated overnight. The supernatants were collected and the lactate dehydrogenase activity was detected. Controls for spontaneous lactate dehydrogenase release from effector and target cells, the target maximum release, as well as the culture medium background were measured simultaneously (Zhou et al., Cell Mol Immunol. 2012; 9(1):34-44).
3-D Spheroid Assays. The 96-well plate was pre-coated with 50 μL 1.5% Agarose (LONZA, Rockland, ME). Melanoma cells (A2058 and UACC 903 cells) were labeled with CellTracker™ Orange CMRA Dye (Thermo Fisher Scientific, Waltham, MA) and seeded at 2×10^4 cells/well and allowed to form spheroids over 48 hours. […] Infiltrated spheroids were analyzed at 48 h using confocal microscope (Leica, Wetzlar, Germany). Spheroids were divided into single cells and CFSE+ cells infiltrating the spheroids was counted by flow cytometry.

purified γδ T cells = experiment: CFSE proliferation of purified naive γδ T cells; format: cell-based, human; conditions: ZOL+PBMCs group, same-donor PBMCs not labeled
Procedure: Primary cells and cell lines: PBMCs and monocytes were obtained from Human Immunology Core at the University of Pennsylvania, which were obtained from healthy donors-Using informed consent and approved by Institutional Review Board. For γδ T cell expansion, PBMCs were cultured with RPMI1640 media supplemented with 10% FBS (HyClone, GE Healthcare, UT, USA), 100 U/ml Penicillin-Streptomycin, 2 mM L-Glutamine, 1/1000 2-Mercaptoethanol (2-Me) (Gibco, ThermoFisher Scientific, MA, USA) (or without 2-Me as indicated) and 200 units/ml of Recombinant Human IL-2 (PeproTech, NJ, USA) in 24-well microplates, new media added and supplemented every other day. TCR-γδ T cells were expanded in 24-well tissue culture treated microplates that were coated with mouse-monoclonal Anti-Pan-TCR γδ antibody (1.0 ug/ml in PBS; IMMU510, IM1349, Beckman). For naive γδT cell isolation, PBMCs were purified using a commercial Human TCR γ/δ T Cell Isolation Kit (Miltenyi Biotec, Germany). Purified naive γδ T cells routinely exceeded >95% […] by flow cytometry. […]
Flow cytometry: PBMCs and γδ T cell phenotypes were analyzed by flow cytometry. […] Data were acquired on LSRA/B or Fortessa B flow cytometers (BD Biosciences, NJ, USA) at Flow Cytometry and Cell Sorting Resource Laboratory at the University of Pennsylvania and analyzed with FlowJo software (Tree Star, Ashland, OR).

Vδ2 T cells in Hu-Mice = experiment: Vδ2 T cell expansion from PBMCs of humanized mice; format: cell-based; conditions: PBMCs from four Hu-Mice, 10 days
Description: Humanized Mice (Hu-Mice): Humanized mice were generated at the Wistar Institute as described (Somasundaram, et al., 2021, Nat Commun 12: 346). Briefly, the humanized mouse model is developed by reconstituting immunodeficient NSG mice with fetal liver-derived CD34+ human hematopoietic stem cells, grafted intravenously, and autologous fetal thymus chunks, grafted under the renal capsule, to promote rapid human T-cell differentiation.
NSG mice engrafted with human hematopoietic stem (CD34+) cells or peripheral blood leukocytes (Hu-Mice) are a useful tool to study immunotherapy (Somasundaram, et al., 2021, Nat Commun 12: 346). However, it was previously unclear whether these mice have functional human γδ T cells. As shown herein, CD3^+VS2^+ T cells are present in the PBMCs of Hu-Mice (FIG. 32A). PBMCs from four Hu-Mice were cultured using human PBMCs culture media and were stimulated with IPP plus resiquimod, or ZOL, for 10 days.

melanoma cells = experiment: LDH release cytotoxicity of expanded γδ T cells to melanoma cell lines; format: cell-based, human; conditions: E:T 5:1
Procedure: Cytotoxicity: Cytotoxicity of γδ T cells against melanoma cells was measured by lactate dehydrogenase (LDH) release using the CytoTox 96® Non-Radioactive Cytotoxicity Assay kit (G1780, Promega, WI, USA) as described (Zhu, et al., 2016, Molecular Medicine 22: 737-746). Briefly, Melanoma cells were seeded at 4×10^4 cells/well in 50 μl standard growth medium in 96-well plates, while γδ T cells were seeded at effective target ratio E:T=5:1 in the same volume of PBMC culture media at the same time. After the indicated time, plates were spin down briefly and 50 μl supernatants were then harvested for further analysis. Absorbance at 490 nm was read using a BioTek Synergy HT reader (BioTek Instruments, VT, USA) after LDH activity detection, the percentage of cytotoxicity was calculated as (Experimental-Effector Spontaneous-Target Spontaneous)/(Target Maximum-Target Spontaneous)×100.

[2] = test system: gastric, colon and lung cancer cells; experiment: LDH release cytotoxicity of expanded γδ T cells to epithelial cancer cell lines; format: cell-based, human; conditions: E:T 5:1; resiquimod 10 μg/ml

Procedure for monocytes: FIG. 30C provides data for purified monocytes cultured with resiquimod for 24 h with indicated concentration, and the viability and mortality were detected with Annexin V/7-AAD apoptosis kit and flow cytometry.

OCCS [2-mercaptoethanol]
effect of antioxidant in the culture medium on Vδ2 T cell expansion (Vδ2 T cells; IPP plus resiquimod, 8 days, medium with or without 2-Me): did not affect Vδ2 T cell expansion

CCNCc1nc2c(N)nc3ccccc3c2n1CC(C)(C)O [gardiquimod]
co-stimulatory effect on IPP induced Vδ2 T cell expansion (Vδ2 T cells; PBMCs): promoted Vδ2 T cell expansion

CC(C)Cn1cnc2c(N)nc3ccccc3c21 [imiquimod]
co-stimulatory effect on IPP induced Vδ2 T cell expansion (Vδ2 T cells; PBMCs): promoted Vδ2 T cell expansion

O=P(O)(O)C(O)(Cn1ccnc1)P(=O)(O)O [ZOL, zoledronate]
γδ T cell subsets expanded (γδ T cells; PBMCs expanded by ZOL or anti-TCRγδ Ab): preferentially expanded Vδ2 cells | γδ T cell expansion, ZOL compared with anti-γδTCR antibody (γδ T cells; PBMCs of healthy donors, 10 day expansion with IL-2): significantly better than that of anti-γδT TCR antibody; also recorded: better expansion of γδ T cells than anti-γδTCR antibody | cytotoxicity of tumor spheroid assays [1]: comparable results | Vδ2 T cell (CFSE+) proliferation when PBMCs were added to the culture system (purified γδ T cells): regained the capability of inducing Vδ2 T cells (CFSE+) proliferation | expansion of peripheral Vδ2 T cells in Hu-Mice (Vδ2 T cells in Hu-Mice): approximately a thousand-fold expansion

CCC(=O)N1CCN(c2ccc(-n3c(=O)ccc4cnc5ccc(-c6cnc7ccccc7c6)cc5c43)cc2C(F)(F)F)CC1 [torin1]
expansion of Vδ2 T cells induced by IPP in presence of mTOR inhibitor (Vδ2 T cells; PBMCs with IPP): significantly reduced | inhibition of Vδ2 T cell expansion by IPP plus resiquimod, relative to IPP (Vδ2 T cells; PBMCs with IPP plus resiquimod and mTOR inhibitor): more prominent

NC(=O)[C@H]1CCS[C@@H]2C[C@]3(CCCN3C(=O)Cc3ccc(NC(=O)COc4ccc(Cl)cc4Cl)cc3)C(=O)N12 [ST2825]
effect of MyD88 inhibition on resiquimod co-stimulation of Vδ2 T cell expansion (Vδ2 T cells; PBMCs with IPP or IPP plus resiquimod): eliminated the co-stimulatory function of resiquimod

CCOCc1nc2c(N)nc3ccccc3c2n1CC(C)(C)O [resiquimod]
efficacy and cytotoxicity compared among three TLR7/8 agonists (Vδ2 T cells; co-stimulation with IPP, PBMCs, day 7): best efficacy with the least cytotoxicity | cytotoxic effect of γδ T cells expanded using pan-anti-γδTCR antibody to melanoma cell lines (melanoma cells; A375, 12051u, 903, A2058, WM9, A2058CR, WM9CR, resiquimod 10 μg/ml): significantly enhanced the cytotoxic effect | cytotoxic effect of γδ T cells expanded using IPP (melanoma cells; A375 and A2058, about 13 days expansion with or without resiquimod): significantly enhanced the cytotoxic effect | cytotoxic effect of γδ T cells expanded using pan-anti-γδTCR antibody to epithelial cancer cells [2]: significantly enhanced the cytotoxic effect | apoptosis and cell death of monocytes (monocytes): induced apoptosis and cell death in some monocytes
